{"source": "patent US12594264B2", "about": "“Modulators of alpha-synuclein proteolysis and associated methods of use” (Arvinas Operations, Inc., priority 2018, dated 2026)", "key": {"[1]": {"target": "T1, sarkosyl insoluble (SI) α-synuclein (human α-SYN A53T) (Homo sapiens, UniProt P37840, A53T)", "T1 construct": "expressed in transfected cells", "test": "MJFF-14-6-4-2 conformation specific ELISA of sarkosyl insoluble α-synuclein after compound treatment", "assay_type": "cell-based", "settings": "1 μM compound; protein remaining relative to DMSO control; PFF induced A53T α-synuclein overexpressing HEK293 cells; read-out: Protein Degradation at 1 μM", "procedure": "(§1) Targeted degradation of sarkosyl insoluble (SI) α-synuclein via exemplary bifunctional compounds was assessed by MJFF-14-6-4-2 conformation specific ELISA following treatment of PFF induced A53T α-synuclein overexpressing HEK293 cells with 1 μM exemplary compound compared to DMSO vehicle control. Degradation activity of the exemplary compounds of Table 2 is expressed as % DMSO control. […] However, the effect of bifunctional targeting degraders, shown in FIG. 5, required the intact E3 ligase binding domain.\n(§2) Trex293 (doxycycline inducible) cells stably expressing human α-SYN A53T (monoclonal) were plated in poly-d-lysine coated T-75 tissue culture flasks (4.5×10e6 cells/flask) in DMEM with 10% tet-free FBS, 10 μg/ml blasticidin, and 400 μg/ml zeocin. After an overnight incubation, the cells were induced to express α-SYN by treatment with 1 μg/ml doxycycline (Dox) and exemplary bifunctional compound. After a 24 hour dox induction, the medium on the cells was changed to Opti-MEM followed by treatment with α-SYN pre-formed fibrils** (PFFs)(5 μg/flask) pre-complexed with Lipofectamine 2000 transfection reagent for 4 hours. After PFF treatment, the medium was changed back to DMEM with the supplements described above and exemplary bifunctional compound for 48 hours.\n(§3) Cell pellets were harvested from each flask using 0.25% trypsin followed by spinning at 500×g for 5 minutes. Each pellet was resuspended in 1 ml cold buffer H [Buffer H-10 mM Tris, 1 mM EGTA, 0.8M NaCl, 10% sucrose, pH7.4 containing 1× protease and phosphatase inhibitors] containing protease and phosphatase inhibitors. The resuspended pellets were incubated on ice for 20 minutes followed by centrifugation at 27,200×g for 20 minutes at 4° C. The supernatants were adjusted to 1% sarkosyl (Sigma) and 1% 2-mercaptoethanol followed by incubation for 1 hour at 37° C. on an orbital shaker set to 400 rpm. The samples were then spun at 150,000×g for 35 minutes at room temperature. The supernatant was removed and saved as the soluble fraction and the insoluble pellet was resuspended in 25 μl tris-buffered saline (TBS). Protein concentrations were determined by NanoDrop, and normalized protein concentrations were analyzed by WES capillary electrophoresis as well as an α-SYN oligomer ELISA.\nRecombinant human α-SYN was purchased from Proteos. 1 mg aliquots were supplied at 10 mg/ml in 10 mM Tris, 50 mM NaCl, pH7.6. The aliquot was thawed on ice followed by centrifugation at 4° C. for 10 minutes at 12,000×g to pellet any insoluble material. The supernatant was removed and quantitated on a NanoDrop (A280) using Beer's Law (ε=5960 M-1 cm-1). The concentration was adjusted to 5 mg/ml in PBS followed by vortexing for 3 seconds to mix contents. The mixture was incubated in an orbital shaker set to 37° C. at 1,000 rpm for 7 days followed by aliquoting into individual use vials. Prior to addition to cells, an aliquot was thawed at room temperature, then diluted to 1 mg/ml with phosphate-buffered saline (PBS) followed by sonication for 1 minute with a probe sonicator (output 1; 90% duty cycle) in a chem hood.\nComing Costar high bind black well plates were coated with MJFR 14-6-4-2 (Abcam) at 1 μg/ml for 1 hour at 37° C. followed by washing with 1×TBS+0.1% tween-20 (TBS-T) then blocking with 3% bovine serum albumin (BSA) in TBS. After re-washing, samples were added after dilution in diluent (1% BSA/TBS-T). Non-sonicated PFF was used to generate a standard curve. The plates were incubated with sample overnight at 4° C. with shaking. The following day alkaline phosphatase (AP) conjugated MJFR 14-6-4-2 was added to the plate without washing followed by incubation at room temperature for 1 hour with shaking or rocking. The plates were then re-washed and substrate (CDP star alkaline phosphatase detection reagent) was added followed by a 30 minute incubation at room temperature. The plate was read on a luminescence plate reader. The counts were log transformed and read off the standard curve. […]"}, "[2]": {"target": "T2, SI A53T α-synuclein protein oligomers (Homo sapiens, UniProt P37840, A53T)", "T2 construct": "expressed in transfected cells", "test": "E3 ligase ligand competition experiment (Oligomer ELISA)", "assay_type": "cell-based", "settings": "for Degradation activity with co-incubated excess E3 ligase ligand: 1 uM compound plus 15-fold molar excess E3 ligase ligand (VHL Ligand with 7, Cereblon Ligand with 23), FIG. 6A bars 2 and 4; for Reduction of SI A53T α-synuclein oligomers (Oligomer ELISA), compound alone: 1 uM compound, no competitor, FIG. 6A bars 1 and 3", "procedure": "FIGS. 6A and 6B. α-Synuclein bifunctional degradation compound activity requires the E3 ligase activity for effective degradation. Pre-formed alpha-synuclein fibrils (α-syn PFFs) were added to TREX tetracycline inducible HEK293 cells that overexpress A53T mutant α-syn to induce detergent-insoluble oligomers as measured by Oligomer ELISA. Doxycycline induced α-syn A53T cells were treated with PFFs to produce higher order oligomeric α-syn A53T in the sarkosyl insoluble fraction and SI α-syn oligomers were detected by ELISA, as described in below. Exemplary bifunctional degradation compounds 7 and 23 at 1 uM concentration, used to generate the data shown in bars 1 and 3, reduced sarkosyl insoluble α-syn.\nas §2, §3\nComing Costar high bind black well plates were coated with MJFR 14-6-4-2 (Abcam) at 1 μg/ml for 1 hour at 37° C. followed by washing with 1×TBS+0.1% tween-20 (TBS-T) then blocking with 3% bovine serum albumin (BSA) in TBS. […] The plate was read on a luminescence plate reader. The counts were log transformed and read off the standard curve. […]"}, "[3]": {"tested_on": "PFF induced HEK293 TREX α-syn A53T cells", "test": "Cytotoxicity by visual inspection of treated cells", "assay_type": "cell-based, human", "settings": "1 μM", "procedure": "as §1, §2\nTo assess targeted degradation of sarkosyl insoluble α-synuclein, exemplary bifunctional compounds designed to bind to oligomeric α-synuclein were tested at 1 μM in PFF induced HEK293 TREX α-syn A53T cells."}}, "data": [{"compound": "O=C1CCC(N2C(=O)c3ccc(N4CCN(CCN5CCC(OC6CN(CCCN7c8ccccc8Sc8ccccc87)C6)CC5)CC4)cc3C2=O)C(=O)N1", "note": "(stereo not shown) [Exemplary Compound 23, 5-(4-(2-(4-((1-(3-(10H-phenothiazin-10-yl)propyl)azetidin-3-yl)oxy)piperidin-1-yl)ethyl)piperazin-1-yl)-2-(2,6-dioxopiperidin-3-yl)isoindoline-1,3-dione]", "values": [{"measurement": "remaining activity at 1 µM", "setting": "[1]", "result": "35 to 70", "unit": "%"}, {"measurement": "Degradation activity with co-incubated excess E3 ligase ligand", "setting": "[2]", "result": "effectively competed"}, {"measurement": "Reduction of SI A53T α-synuclein oligomers (Oligomer ELISA), compound alone", "setting": "[2]", "result": "effectively reduced"}]}, {"compound": "Cc1ncsc1-c1ccc([C@H](C)NC(=O)[C@@H]2C[C@@H](O)CN2C(=O)[C@@H](NC(=O)COCCOCCOc2ccc(CN3C(=O)C(=CC=Cc4ccc([N+](=O)[O-])cc4)c4ccccc43)cc2)C(C)(C)C)cc1", "note": "(single isomer, unassigned) [Exemplary Compound 7]", "values": [{"measurement": "remaining activity at 1 µM", "setting": "[1]", "result": "35 to 70", "unit": "%"}, {"measurement": "Cytotoxicity at the concentration tested", "setting": "[3]", "result": "without any visual impact to cell health"}, {"measurement": "Degradation activity with co-incubated excess E3 ligase ligand", "setting": "[2]", "result": "effectively competed"}, {"measurement": "Reduction of SI A53T α-synuclein oligomers (Oligomer ELISA), compound alone", "setting": "[2]", "result": "effectively reduced"}]}]}
